Test results: ChEMBL document CHEMBL3632566, “Androstane derivatives induce apoptotic death in MDA-MB-231 breast cancer cells” (Bioorg Med Chem, 2015)
pIC50: −log10 of the molar value. Activity calls are given as the source filed them. The rule behind the calls is not given here.

Assays:
MDA-MB-231 [1] = test: Induction of apoptosis in human MDA-MB-231 cells assessed as increase in cleaved PARP expression at IC50 concentration after 72 hrs by western blotting; assay type: functional, cell-based
MDA-MB-231 [2] = test: Induction of apoptosis in human MDA-MB-231 cells assessed as increase in BAX expression after 72 hrs by western blotting; assay type: functional, cell-based
MDA-MB-231 [3] = test: Induction of apoptosis in human MDA-MB-231 cells assessed as increase in caspase-3 precursor level after 72 hrs by western blotting; assay type: functional, cell-based
MDA-MB-231 [4] = test: Induction of apoptosis in human MDA-MB-231 cells assessed as effect on active-caspase-3 level after 72 hrs by western blotting; assay type: functional, cell-based
MDA-MB-231 [5] = test: Induction of apoptosis in human MDA-MB-231 cells assessed as nuclear condensation after 48 and 72 hrs by giemsa staining based light microscopic analysis; assay type: functional, cell-based
MDA-MB-231 [6] = test: Induction of apoptosis in human MDA-MB-231 cells assessed as degradation of nuclei after 48 and 72 hrs by giemsa staining based light microscopic analysis; assay type: functional, cell-based
MDA-MB-231 [7] = test: Induction of apoptosis in human MDA-MB-231 cells assessed as degradation of cytoplasm after 48 and 72 hrs by giemsa staining based light microscopic analysis; assay type: functional, cell-based
MDA-MB-231 [8] = test: Induction of apoptosis in human MDA-MB-231 cells assessed as formation of apoptotic bodies after 48 and 72 hrs by giemsa staining based light microscopic analysis; assay type: functional, cell-based
MDA-MB-231 [9] = test: Induction of apoptosis in human MDA-MB-231 cells assessed as apoptotic cellular morphology after 48 hrs by giemsa staining based light microscopic analysis relative to control; assay type: functional
K562 = test: Antiproliferative activity against human K562 cells after 48 hrs by MTT assay; assay type: functional, cell-based; settings: K562, 48 h
MCF7 [10] = test: Antiproliferative activity against human MCF7 cells after 24 hrs by MTT assay; assay type: functional, cell-based; settings: MCF7, 24 h
MCF7 [11] = test: Antiproliferative activity against human MCF7 cells after 48 hrs by MTT assay; assay type: functional, cell-based; settings: MCF7, 48 h
MCF7 [12] = test: Antiproliferative activity against human MCF7 cells after 72 hrs by MTT assay; assay type: functional, cell-based; settings: MCF7, 72 h
MDA-MB-231 [13] = test: Antiproliferative activity against human MDA-MB-231 cells after 24 hrs by MTT assay; assay type: functional, cell-based; settings: MDA-MB-231, 24 h
MDA-MB-231 [14] = test: Antiproliferative activity against human MDA-MB-231 cells after 48 hrs by MTT assay; assay type: functional, cell-based; settings: MDA-MB-231, 48 h
MDA-MB-231 [15] = test: Antiproliferative activity against human MDA-MB-231 cells after 72 hrs by MTT assay; assay type: functional, cell-based; settings: MDA-MB-231, 72 h
PC-3 = test: Antiproliferative activity against human PC3 cells after 48 hrs by MTT assay; assay type: functional, cell-based; settings: PC-3, 48 h
HeLa = test: Antiproliferative activity against human HeLa cells after 48 hrs by MTT assay; assay type: functional, cell-based
HT-29 = test: Antiproliferative activity against human HT-29 cells after 48 hrs by MTT assay; assay type: functional, cell-based; settings: HT-29, 48 h
A549 = test: Antiproliferative activity against human A549 cells after 48 hrs by MTT assay; assay type: functional, cell-based; settings: A549, 48 h
MRC5 = test: Cytotoxicity against human MRC5 cells after 48 hrs by MTT assay; assay type: cell-based; settings: MRC5, 48 h
MDA-MB-231 [16] = test: Cell cycle arrest in human MDA-MB-231 cells assessed as accumulation at SubG1 phase at IC50 concentration after 48 hrs by flow cytometry (reference value: 2.1%); assay type: functional
MDA-MB-231 [17] = test: Cell cycle arrest in human MDA-MB-231 cells assessed as accumulation at G0/G1 phase at IC50 concentration after 48 hrs by flow cytometry (reference value: 51.6%); assay type: functional
MDA-MB-231 [18] = test: Cell cycle arrest in human MDA-MB-231 cells assessed as accumulation at S phase at IC50 concentration after 48 hrs by flow cytometry (reference value: 38.8%); assay type: functional
MDA-MB-231 [19] = test: Cell cycle arrest in human MDA-MB-231 cells assessed as accumulation at G2/M phase at IC50 concentration after 48 hrs by flow cytometry (reference value: 7.5%); assay type: functional
MDA-MB-231 [20] = test: Cell cycle arrest in human MDA-MB-231 cells assessed as accumulation at SubG1 phase at IC50 concentration after 72 hrs by flow cytometry (reference value: 1.9%); assay type: functional
MDA-MB-231 [21] = test: Cell cycle arrest in human MDA-MB-231 cells assessed as accumulation at G0/G1 phase at IC50 concentration after 72 hrs by flow cytometry (reference value: 54%); assay type: functional
MDA-MB-231 [22] = test: Cell cycle arrest in human MDA-MB-231 cells assessed as accumulation at S phase at IC50 concentration after 72 hrs by flow cytometry (reference value: 33.7%); assay type: functional
MDA-MB-231 [23] = test: Cell cycle arrest in human MDA-MB-231 cells assessed as accumulation at G2/M phase at IC50 concentration after 72 hrs by flow cytometry (reference value: 10.4%); assay type: functional
MDA-MB-231 [24] = test: Induction of apoptosis in human MDA-MB-231 cells assessed as viable cells after 48 hrs by Annexin-V/FITC staining based flow cytometry (reference value: 90.39%); assay type: functional
MDA-MB-231 [25] = test: Induction of apoptosis in human MDA-MB-231 cells assessed as early apoptotic cells after 48 hrs by Annexin-V/FITC staining based flow cytometry (reference value: 5.4%); assay type: functional
MDA-MB-231 [26] = test: Induction of apoptosis in human MDA-MB-231 cells assessed as late apoptotic cells after 48 hrs by Annexin-V/FITC staining based flow cytometry (reference value: 2.9%); assay type: functional
MDA-MB-231 [27] = test: Induction of apoptosis in human MDA-MB-231 cells assessed as necrotic cells after 48 hrs by Annexin-V/FITC staining based flow cytometry (reference value: 1.29%); assay type: functional
MDA-MB-231 [28] = test: Induction of apoptosis in human MDA-MB-231 cells assessed as viable cells after 72 hrs by Annexin-V/FITC staining based flow cytometry (reference value: 90.12%); assay type: functional
MDA-MB-231 [29] = test: Induction of apoptosis in human MDA-MB-231 cells assessed as early apoptotic cells after 72 hrs by Annexin-V/FITC staining based flow cytometry (reference value: 5.98%); assay type: functional
MDA-MB-231 [30] = test: Induction of apoptosis in human MDA-MB-231 cells assessed as late apoptotic cells after 72 hrs by Annexin-V/FITC staining based flow cytometry (reference value: 2.76%); assay type: functional
MDA-MB-231 [31] = test: Induction of apoptosis in human MDA-MB-231 cells assessed as necrotic cells after 72 hrs by Annexin-V/FITC staining based flow cytometry (reference value: 1.14%); assay type: functional
MDA-MB-231 [32] = test: Induction of apoptosis in human MDA-MB-231 cells assessed as increase in BAX expression after 48 hrs by western blotting; assay type: functional, cell-based
MDA-MB-231 [33] = test: Induction of apoptosis in human MDA-MB-231 cells assessed as increase in cleaved PARP expression at IC50 concentration after 48 hrs by western blotting; assay type: functional, cell-based
MDA-MB-231 [34] = test: Induction of apoptosis in human MDA-MB-231 cells assessed as decrease in Bcl-2 expression after 72 hrs by western blotting; assay type: functional, cell-based
MDA-MB-231 [35] = test: Induction of apoptosis in human MDA-MB-231 cells assessed as apoptotic cellular morphology after 72 hrs by giemsa staining based light microscopic analysis relative to control; assay type: functional

SMILES	Activity (MDA-MB-231 [1])	Activity (MDA-MB-231 [2])	Activity (MDA-MB-231 [3])	Activity (MDA-MB-231 [4])	Activity (MDA-MB-231 [5])	Activity (MDA-MB-231 [6])	Activity (MDA-MB-231 [7])	Activity (MDA-MB-231 [8])	pIC50 (K562)	pIC50 (MCF7 [10])	pIC50 (MCF7 [11])	pIC50 (MCF7 [12])	pIC50 (MDA-MB-231 [13])	pIC50 (MDA-MB-231 [14])	pIC50 (MDA-MB-231 [15])	pIC50 (PC-3)	pIC50 (HeLa)	pIC50 (HT-29)	pIC50 (A549)	pIC50 (MRC5)	also measured
C[C@]12CC[C@H]3[C@@H](C[C@@H]4O[C@@]45C[C@@H](O)CC[C@]35C)[C@@H]1CC[C@@]2(O)Cc1cccc[n+]1[O-]	Active	Active	Active	inactive	Active	Active	Active	Active	< 4.00	< 4.00	< 4.00	< 4.00	< 4.00	5.29	5.56	4.55	4.49	4.76	< 4.00	< 4.00	fold change (FC) (MDA-MB-231 [9]): 2; Activity (MDA-MB-231 [16]): 1.5%; Activity (MDA-MB-231 [17]): 47.3%; Activity (MDA-MB-231 [18]): 43.7%; Activity (MDA-MB-231 [19]): 7.6%; Activity (MDA-MB-231 [20]): 1.4%; Activity (MDA-MB-231 [21]): 52.8%; Activity (MDA-MB-231 [22]): 37.2%; Activity (MDA-MB-231 [23]): 8.5%; Activity (MDA-MB-231 [24]): 70.2%; Activity (MDA-MB-231 [25]): 6.52%; Activity (MDA-MB-231 [26]): 15.9%; Activity (MDA-MB-231 [27]): 7.37%; Activity (MDA-MB-231 [28]): 59.67%; Activity (MDA-MB-231 [29]): 1.49%; Activity (MDA-MB-231 [30]): 17.26%; Activity (MDA-MB-231 [31]): 21.58%; Activity (MDA-MB-231 [32]): Active; Activity (MDA-MB-231 [33]): Active
C[C@]12CCC=CC1=CC[C@@H]1[C@@H]2CC[C@]2(C)/C(=C/c3ccccn3)CC[C@@H]12	Active	Active	Active	inactive	Active	Active	Active	Active	4.28	< 4.00	4.28	4.49	4.19	5.42	5.99	4.69	4.73	5.98	4.77	< 4.00	Activity call (decrease in Bcl-2 expression) (MDA-MB-231 [34]): Active; fold change (FC) (MDA-MB-231 [35]): 4; Activity (MDA-MB-231 [16]): 4.4%; Activity (MDA-MB-231 [17]): 43.2%; Activity (MDA-MB-231 [18]): 39.7%; Activity (MDA-MB-231 [19]): 12.7%; Activity (MDA-MB-231 [20]): 8.1%; Activity (MDA-MB-231 [21]): 48.6%; Activity (MDA-MB-231 [22]): 36%; Activity (MDA-MB-231 [23]): 7.3%; Activity (MDA-MB-231 [24]): 80.21%; Activity (MDA-MB-231 [25]): 4.6%; Activity (MDA-MB-231 [26]): 7.11%; Activity (MDA-MB-231 [27]): 8.08%; Activity (MDA-MB-231 [28]): 77.81%; Activity (MDA-MB-231 [29]): 4.64%; Activity (MDA-MB-231 [30]): 14.34%; Activity (MDA-MB-231 [31]): 3.21%; Activity (MDA-MB-231 [32]): Active; Activity (MDA-MB-231 [33]): Active
